Measurements published in patent US10125097B2, “1- [1-(benzoyl)-pyrrolidine-2-carbonyl]-pyrrolidine-2-carbonitrile derivatives” (UNIVERSITAT DE BARCELONA, priority 2012, dated 2018).
pIC50: −log10 of the molar value.

How the values were obtained:
[1] = molecular target: human prolyl oligopeptidase (Homo sapiens (Human), UniProt P48147); assay: POP inhibition assay (Z-G-P-AMC substrate, fluorimetric); format: biochemical; conditions: Conditions B: 100 mM Tris-acetate, 10 mM BSA, 1 mM DTT, pH 7.3, hPOP 10 nM; read-out: IC50, inhibition of human prolyl oligopeptidase, measured in conditions B
Sequence of human prolyl oligopeptidase (P48147 whole entry): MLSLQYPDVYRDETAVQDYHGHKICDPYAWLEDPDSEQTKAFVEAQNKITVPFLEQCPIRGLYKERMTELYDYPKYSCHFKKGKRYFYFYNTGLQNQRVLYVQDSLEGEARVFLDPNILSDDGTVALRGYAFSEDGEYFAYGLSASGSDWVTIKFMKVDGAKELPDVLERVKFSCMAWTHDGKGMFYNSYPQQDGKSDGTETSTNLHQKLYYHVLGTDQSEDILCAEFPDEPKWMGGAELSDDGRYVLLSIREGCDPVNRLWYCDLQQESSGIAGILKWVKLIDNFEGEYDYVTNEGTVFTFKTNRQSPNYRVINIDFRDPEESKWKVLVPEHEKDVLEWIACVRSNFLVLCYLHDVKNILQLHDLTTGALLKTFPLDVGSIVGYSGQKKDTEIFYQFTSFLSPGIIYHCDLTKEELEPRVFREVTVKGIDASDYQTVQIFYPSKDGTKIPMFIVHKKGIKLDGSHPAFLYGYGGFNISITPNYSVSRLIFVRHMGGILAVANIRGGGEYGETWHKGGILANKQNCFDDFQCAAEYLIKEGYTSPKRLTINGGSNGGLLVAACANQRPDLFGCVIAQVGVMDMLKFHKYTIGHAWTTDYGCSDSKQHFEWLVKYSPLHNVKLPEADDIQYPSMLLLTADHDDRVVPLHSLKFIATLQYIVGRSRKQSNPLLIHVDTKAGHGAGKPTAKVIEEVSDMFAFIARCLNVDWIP
Procedure: Expression and Purification of Prolyl Oligopeptidase (POP)
POP was obtained by expression in E. coli and affinity purification using a His tail fusion according to a literature procedure (Tarragó T et al., ChemBioChem 2006; 7:827-33) summarized below:
hPOP expression: E. coli BL21 competent cells were transformed with pETM10 hPOP. To induce expression, a pre-culture of LB medium (50 mL) containing kanamycin (50 μg/mL) was inoculated with one colony and was grown overnight at 37° C. Next day, two cultures of LB medium (500 mL) were inoculated with the overnight culture (10 mL). The inoculated cultures were grown at 37° C. and 220 rpm until the OD595 was 1.2 (2.5-3 hours). IPTG was then added (final concentration of 1 mM) and induction was performed overnight at 25° C. Cells were harvested (3500 g, 15 min, 4° C.) and the pellet was suspended in suspension buffer (50 mL) [Tris-HCl pH 8 (50 mM), NaCl (300 mM), imidazole (1 mM)] and sonicated with use of four cycles (each consisting of 15 sec of sonication and 15 sec of rest) at an intensity of 50% and 0.5 pulses, the sample being kept on ice. After sonication, the sample was centrifuged (40 000 g, 30 min, 4° C.) and the supernatant was used immediately for POP purification. An ÁKTA explorer FPLC system was used for purification. The supernatant was applied at a flow of 1 mL/min to a HiTrapQuelating column (5 mL) previously equilibrated with 5 column volumes of suspension buffer. The column was washed with suspension buffer until the absorbance at 280 nm returned to basal level. The column was then rinsed with 5 volumes of washing buffer (50 mM Tris-HCl, pH 8, 300 mM NaCl, 30 mM imidazole). The elution was performed with 4 volumes of elution buffer (50 mM Tris-HCl, pH 8, 300 mM NaCl, 500 mM imidazole). Fractions (4 mL) were collected during the entire elution. POP activity was checked in all fractions and positive ones were analyzed by SDS-PAGE and stained with Biosafe Comassie Stain G-250. Positive fractions were collected and desalted by use of a HiPrep 26/10 Desalting column with Tris-HCl (50 mM, pH 8) as buffer. Recombinant hPOP was quantified with the Bio-Rad Protein Assay with BSA as standard. Aliquots of the recombinant enzyme were prepared and immediately frozen with liquid nitrogen and stored at −80° C.
POP activity was determined following the method described by Toide et al (Toide K et al., J. Pharmacol. Exp. Ther. 1995; 274:1370-8), using Z-G-P-AMC (N-benzyloxycarbonyl-Gly-Pro-methylcoumarinyl-7-amide) as POP substrate. The reactions were performed in 96-well microtiter plates, which allowed simultaneous monitoring of multiple reactions. For each reaction, activity buffer (134 μl, 100 mM Na/K phosphate buffer, pH 8.0) was pre-incubated for 15 min at 37° C. with hPOP (ranging from 20 to 60 nM, depending on the activity of the hPOP batch) and the corresponding new compound solution (3 μl). A stock solution of new compound was prepared in DMSO (100 mM), and dilutions were prepared from this stock solution with DMSO. Alternatively, the reactions were performed using another activity buffer (141 μL, 100 mM Tris-acetate, […], 1 mM DTT, pH 7.3), pre-incubating with hPOP (10 nM) and the corresponding new compound solution (3 μl) (Conditions B).
After preincubation, Z-G-P-AMC (10 μl, 3 mM in 40% 1,4-dioxane) was added (3 μl, 1.5 mM in 40% of 1,4-dioxane, in Conditions B), and the reaction was incubated for 1 hour at 37° C. The reaction was stopped by adding sodium acetate (150 μl, 1 M, pH 4) and the formation of AMC was measured fluorimetrically. The excitation and emission wavelengths were 360/40 and 485/20 nm, respectively.
Several concentration points (ranging from 25 μM to 400 μM) were measured for each compound. The inhibitory activity on prolyl oligopeptidase was calculated according to eq 1. For each new compound, the fluorescence in the presence (a) and in the absence of hPOP (b) was measured. […]

[2] = Parallel artificial membrane permeability assay (PAMPA); format: in vitro ADME; conditions: 200 μM initial concentration, pH 7.4, 4 hours, room temperature; for Papp at 4 h, 200 μM: PAMPA, read-out: Effective permeability Pe
Procedure: Parallel artificial membrane permeability assay (PAMPA) described in Kansy M et al., J. Med. Chem. 1998; 41(7):1007-10 was used to determine the capacity of compounds to cross the Blood-Brain Barrier (BBB) by passive diffusion (Di L et al., Eur. J. Med. Chem. 2003; 38(3):223-32). The effective permeability (Pe) of the compounds was measured at an initial concentration of 200 μM. The buffer solution was prepared from a commercial concentrated one following the manufacturer's instructions. pH was adjusted to 7.4 using a 0.5 M NaOH solution. A stock solution of new compound was prepared in DMSO and diluted with buffer solution to a final 200 μM concentration (0.5% DMSO content). The PAMPA sandwich was separated and each donor well was filled with 200 μL of the compound solution. The acceptor plate was placed into the donor plate, ensuring that the underside of the membrane was in contact with buffer. 4 μL of the mixture of phospholipids (20 mg/mL) in dodecane was added to the filter of each well, and 200 μL of buffer solution was added to the each acceptor well. The plate was covered and incubated at room temperature in a saturated humidity atmosphere for 4 hours under orbital agitation at 100 rpm. After 4 hours, the contents of the acceptor and donor compartments were analyzed by HPLC: 150 μL of each well from the donor plate and 150 μL of each well from the acceptor plate were transferred to HPLC vials, injecting each sample into a reverse-phase C18 column (150 mm×4.6 mm×5 μm, 100 Å) (100 μL/injection from the acceptor wells, 10 μL/injection from the donor wells and for t0 references). Transport was also confirmed by MALDI-TOF spectrometry.
The phospholipid mixture used was a porcine polar brain lipid extract, provided by Avanti polar lipids, with the following composition: 12.6% phosphatidylcholine (PC), 33.1% phosphatidylethanolamine (PE), 18.5% phosphatidylserine (PS), 4.1% phosphatidylinositol (PI), 0.8% phosphatidic acid and 30.9% of other compounds.
The effective permeability (Pe) after 4 hours was calculated using equation 2 and the percentage of transport was calculated using equation 3:
[formula] wherein: t is time (h) CA(t) is the compound concentration in the acceptor well at time t and CD(to) is the compound concentration in the donor well at to.

POP = POP (Homo sapiens (Human), UniProt P48147); conditions: non-competitive POP inhibitor; Park D H et al., Fitoterapia 2010; read-out: IC50 (POP inhibition); cited from earlier work
Sequence of POP (P48147 whole entry): as above

SMILES	pIC50 [1]	% T (percentage of transport) [2] [%]	Papp at 4 h, 200 μM [2] [×10⁻⁶ cm/s]	pIC50 (POP)
N#C[C@@H]1CCCN1C(=O)[C@@H]1CC(F)(F)CN1C(=O)c1ccc(OCc2ccccc2)c(C(F)(F)F)c1 [Example 20, (S)-1-((S)-1-(4-(benzyloxy)-3-(trifluoromethyl)benzoyl)-4,4-difluoropyrrolidine-2-carbonyl)pyrrolidine-2-carbonitrile]	8.35	2.64	1.29	–
N#C[C@@H]1CCCN1C(=O)[C@@H]1CC(F)(F)CN1C(=O)c1ccc(OCc2ccccc2)c(F)c1 [Example 21, (S)-1-((S)-1-(4-(benzyloxy)-3-fluorobenzoyl)-4,4-difluoropyrrolidine-2-carbonyl)pyrrolidine-2-carbonitrile]	8.30	10.43	5.57	–
O=C(/C=C/c1ccc(O)c(O)c1)O[C@H](Cc1ccc(O)c(O)c1)C(=O)O [rosmarinic acid]	–	–	–	4.20
